Experimental data as given in ChEMBL document CHEMBL4808193, “[11]-Chaetoglobosins from Pseudeurotium bakeri Induce G2/M Cell Cycle Arrest and Apoptosis in Human Cancer Cells” (J Nat Prod, 2021).

Assays:
A-427 [1] = test: Cell cycle arrest in human A-427 cells assessed as accumulation at S phase at 2 uM measured after 24 hrs by PI staining based flow cytometry (reference value: 25.84%); format: functional
MCF7 [2] = test: Induction of apoptosis in human MCF7 cells assessed as late apoptotic cells at 10 uM measured after 24 hrs by Annexin V-FITC/propidium iodide staining based flow cytometric analysis (reference value: 1.19%); format: functional
HepG2 = test: Cytotoxicity against human HepG2 cells assessed as reduction in cell viability by MTT assay; format: functional, cell-based
A-427 [3] = test: Induction of apoptosis in human A-427 cells assessed as late apoptotic cells at 5 uM measured after 24 hrs by Annexin V-FITC/propidium iodide staining based flow cytometric analysis (reference value: 3.59%); format: functional
MCF7 [4] = test: Induction of apoptosis in human MCF7 cells assessed as late apoptotic cells at 5 uM measured after 24 hrs by Annexin V-FITC/propidium iodide staining based flow cytometric analysis (reference value: 1.19%); format: functional
HCT-116 = test: Cytotoxicity against human HCT-116 cells assessed as reduction in cell viability by MTT assay; format: functional, cell-based
A-427 [5] = test: Cell cycle arrest in human A-427 cells assessed as accumulation at G2/M phase at 4 uM measured after 24 hrs by PI staining based flow cytometry (reference value: 13.59%); format: functional
MCF7 [6] = test: Induction of apoptosis in human MCF7 cells assessed as early apoptotic cells at 10 uM measured after 24 hrs by Annexin V-FITC/propidium iodide staining based flow cytometric analysis (reference value: 3.07%); format: functional
MCF7 [7] = test: Induction of apoptosis in human MCF7 cells assessed as early apoptotic cells at 7.5 uM measured after 24 hrs by Annexin V-FITC/propidium iodide staining based flow cytometric analysis (reference value: 3.07%); format: functional
A-427 [8] = test: Cell cycle arrest in human A-427 cells assessed as accumulation at G0/G1 phase at 4 uM measured after 24 hrs by PI staining based flow cytometry (reference value: 60.57%); format: functional
MCF7 [9] = test: Cell cycle arrest in human MCF7 cells assessed as accumulation at S phase at 5 uM measured after 24 hrs by PI staining based flow cytometry (reference value: 9.43%); format: functional
A-427 [10] = test: Cytotoxicity against human A-427 cells assessed as reduction in cell viability by MTT assay; format: functional, cell-based
MCF7 [11] = test: Cell cycle arrest in human MCF7 cells assessed as accumulation at G0/G1 phase at 5 uM measured after 24 hrs by PI staining based flow cytometry (reference value: 61.67%); format: functional
A-427 [12] = test: Cell cycle arrest in human A-427 cells assessed as accumulation at G2/M phase at 6 uM measured after 24 hrs by PI staining based flow cytometry (reference value: 13.59%); format: functional
L02 = test: Cytotoxicity against human L02 cells assessed as reduction in cell viability by MTT assay; format: cell-based
MCF7 [13] = test: Cell cycle arrest in human MCF7 cells assessed as accumulation at G2/M phase at 10 uM measured after 24 hrs by PI staining based flow cytometry (reference value: 18.9%); format: functional
A-427 [14] = test: Cell cycle arrest in human A-427 cells assessed as accumulation at S phase at 4 uM measured after 24 hrs by PI staining based flow cytometry (reference value: 25.84%); format: functional
MCF7 [15] = test: Cell cycle arrest in human MCF7 cells assessed as accumulation at G0/G1 phase at 10 uM measured after 24 hrs by PI staining based flow cytometry (reference value: 61.67%); format: functional
MCF7 [16] = test: Cell cycle arrest in human MCF7 cells assessed as accumulation at G2/M phase at 7.5 uM measured after 24 hrs by PI staining based flow cytometry (reference value: 18.9%); format: functional
MCF7 [17] = test: Cell cycle arrest in human MCF7 cells assessed as accumulation at S phase at 7.5 uM measured after 24 hrs by PI staining based flow cytometry (reference value: 9.43%); format: functional
A-427 [18] = test: Induction of apoptosis in human A-427 cells assessed as late apoptotic cells at 2.5 uM measured after 24 hrs by Annexin V-FITC/propidium iodide staining based flow cytometric analysis (reference value: 3.59%); format: functional
MCF7 [19] = test: Cytotoxicity against human MCF7 cells assessed as reduction in cell viability by MTT assay; format: functional, cell-based
MCF7 [20] = test: Cell cycle arrest in human MCF7 cells assessed as accumulation at G0/G1 phase at 7.5 uM measured after 24 hrs by PI staining based flow cytometry (reference value: 61.67%); format: functional
MCF7 [21] = test: Cell cycle arrest in human MCF7 cells assessed as accumulation at S phase at 10 uM measured after 24 hrs by PI staining based flow cytometry (reference value: 9.43%); format: functional
A-427 [22] = test: Induction of apoptosis in human A-427 cells assessed as early apoptotic cells at 7.5 uM measured after 24 hrs by Annexin V-FITC/propidium iodide staining based flow cytometric analysis (reference value: 4.75%); format: functional
MCF7 [23] = test: Cell cycle arrest in human MCF7 cells assessed as accumulation at G2/M phase at 5 uM measured after 24 hrs by PI staining based flow cytometry (reference value: 18.9%); format: functional
MCF7 [24] = test: Induction of apoptosis in human MCF7 cells assessed as late apoptotic cells at 7.5 uM measured after 24 hrs by Annexin V-FITC/propidium iodide staining based flow cytometric analysis (reference value: 1.19%); format: functional
A-427 [25] = test: Cell cycle arrest in human A-427 cells assessed as accumulation at G0/G1 phase at 2 uM measured after 24 hrs by PI staining based flow cytometry (reference value: 60.57%); format: functional
A-427 [26] = test: Induction of apoptosis in human A-427 cells assessed as early apoptotic cells at 2.5 uM measured after 24 hrs by Annexin V-FITC/propidium iodide staining based flow cytometric analysis (reference value: 4.75%); format: functional
MCF7 [27] = test: Induction of apoptosis in human MCF7 cells assessed as early apoptotic cells at 5 uM measured after 24 hrs by Annexin V-FITC/propidium iodide staining based flow cytometric analysis (reference value: 3.07%); format: functional
A-427 [28] = test: Cell cycle arrest in human A-427 cells assessed as accumulation at G2/M phase at 2 uM measured after 24 hrs by PI staining based flow cytometry (reference value: 13.59%); format: functional
HeLa = test: Cytotoxicity against human HeLa cells assessed as reduction in cell viability by MTT assay; format: functional, cell-based
A-427 [29] = test: Cell cycle arrest in human A-427 cells assessed as accumulation at S phase at 6 uM measured after 24 hrs by PI staining based flow cytometry (reference value: 25.84%); format: functional
HT-29 = test: Cytotoxicity against human HT-29 cells assessed as reduction in cell viability by MTT assay; format: functional, cell-based
A-427 [30] = test: Cell cycle arrest in human A-427 cells assessed as accumulation at G0/G1 phase at 6 uM measured after 24 hrs by PI staining based flow cytometry (reference value: 60.57%); format: functional
A-427 [31] = test: Induction of apoptosis in human A-427 cells assessed as early apoptotic cells at 5 uM measured after 24 hrs by Annexin V-FITC/propidium iodide staining based flow cytometric analysis (reference value: 4.75%); format: functional
A-427 [32] = test: Induction of apoptosis in human A-427 cells assessed as late apoptotic cells at 7.5 uM measured after 24 hrs by Annexin V-FITC/propidium iodide staining based flow cytometric analysis (reference value: 3.59%); format: functional
A549 = test: Cytotoxicity against human A549 cells assessed as reduction in cell viability by MTT assay; format: functional, cell-based

SMILES: CC1=C[C@@H]2/C=C/C[C@H](C)CC(=O)/C=C\C(=O)[C@]23C(=O)N[C@@H](Cc2c[nH]c4ccccc24)[C@@H]3[C@@H]1C
- Activity (A-427 [1]): 20.39%
- Activity (MCF7 [2]): 9.17%
- IC50 (HepG2): 9.6 µM
- Activity (A-427 [3]): 23.7%
- Activity (MCF7 [4]): 7.3%
- IC50 (HCT-116): 10.6 µM
- Activity (A-427 [5]): 44.26%
- Activity (MCF7 [6]): 28.62%
- Activity (MCF7 [7]): 25.77%
- Activity (A-427 [8]): 34.56%
- Activity (MCF7 [9]): 13.57%
- IC50 (A-427 [10]): 6.6 µM
- Activity (MCF7 [11]): 37.81%
- Activity (A-427 [12]): 50.04%
- IC50 (L02): 35.5 µM
- Activity (MCF7 [13]): 60.73%
- Activity (A-427 [14]): 21.18%
- Activity (MCF7 [15]): 26.96%
- Activity (MCF7 [16]): 51.12%
- Activity (MCF7 [17]): 13.87%
- Activity (A-427 [18]): 17.54%
- IC50 (MCF7 [19]): 7.2 µM
- Activity (MCF7 [20]): 35%
- Activity (MCF7 [21]): 12.31%
- Activity (A-427 [22]): 27.61%
- Activity (MCF7 [23]): 48.62%
- Activity (MCF7 [24]): 7.41%
- Activity (A-427 [25]): 44.94%
- Activity (A-427 [26]): 12.11%
- Activity (MCF7 [27]): 18.98%
- Activity (A-427 [28]): 34.67%
- IC50 (HeLa): 8.4 µM
- Activity (A-427 [29]): 22.56%
- IC50 (HT-29): 8.2 µM
- Activity (A-427 [30]): 27.41%
- Activity (A-427 [31]): 23.77%
- Activity (A-427 [32]): 32.81%
- IC50 (A549): 7.9 µM
